Experimental data published in patent US20200093801A1, “NEW METHODS FOR THE TREATMENT OF MULTIPLE SCLEROSIS” (Novartis AG, priority 2017, published 2020).
Entries after “also recorded” stand apart in the source; their conditions may differ.

Assays:
[1] = tested on: Cuprizone-Induced Demyelination in Mice; assay: Cuprizone-induced demyelination in mice, brain histology / immunohistochemistry (169 mg/kg); assay type: in vivo, Mice (C57BL/6J); conditions: 169 mg/kg p.o. qd, 2 weeks after 5 weeks 0.2% cuprizone
From the text: Studies described below were approved by the Swiss Cantonal Veterinary Authority of Basel City, Switzerland, under the license number 2711. Mice (C57BL/6J) were commercially purchased from Charles River Laboratories, Germany or obtained from Novartis Pharma AG breeding colonies (8-9 weeks old, females). All the animals were allowed to adapt for 7 days prior the start of the experiment and housed in IVC racks (max. 4 mice/XJ Type cage). The animals were given access to food and water ad libitum. Animals were treated with cuprizone for 5 weeks. Cuprizone (Bis(cyclohexanone)oxaldihydrazone, Sigma-Aldrich) was mixed into rodent food pellets (0.2% w/w) by Provimi Kliba AG, Switzerland. Therapeutic treatment of animals after cuprizone was performed for 2 weeks on normal food with 169 mg/kg of BLZ945, qd, p.o. 10 ml/kg. BLZ945 was prepared in vehicle consisting of 0.5% methylcellulose in water and 0.1% Tween-80. Before killing 3 h after last BLZ945 dosing animals were perfused transcardially by phosphate-buffered saline (PBS), brains isolated and fixed in 4% paraformaldehyde (PFA) for 48 h at 4° C. After fixation brains were processed for paraffin embedding by dehydration through increasing ethanol series. Automated immunohistochemistry of paraffin sections was performed on 3 μm paraffin sections mounted on SuperFrost+ slides and automatically immunostained using the Discovery XT technology (Ventana/Roche Diagnostics). Briefly, sections were deparaffinized, rehydrated, subjected to antigen retrieval by heating with CC1 cell conditioning buffer, incubated for 1-3 hours at room temperature with primary antibody diluted in antibody diluent, incubated with the respective biotinylated secondary antibody diluted in antibody dilution, reacted with DABMab kit and counterstained with Hematoxylin II and Bluing Agent reagent (Ventana/Roche Diagnostics). Slides were washed with soap in hot tap water and rinsed under cold running tap water to remove the soap, then dehydrated and embedded with Pertex. Manual immunofluorescence staining of paraffin sections was performed on 3 μm paraffin sections. They were de-waxed and subjected to antigen retrieval (exception: GST-π) by microwaving for 15-20 minutes at 98° C. in 0.1 M citrate buffer pH 6.0 (quartett 400300692), the jar with slides were cooled to room temperature for 20-25 min and rinsed in 1×TBS (cell signaling 12498S) twice for 3 min. Endogenous peroxidase was quenched with Perox Block (Dako S2023) for 10 min, sections then washed with 1×TBS twice for 3 min and blocking with 10% normal goat serum (Dako X0907) in 1×TBS for 20 min performed. Sections were then incubated without rinsing with primary antibody for 60 min (MBP) or overnight (GST-pi, MOG) at room temperature. Sections were then washed in 1×TBS twice for 3 min and then incubated with secondary antibody for 30 min at room temperature. Sections were then washed with 1×TBS twice for 3 min and incubated with Vectastain ABC Elite Kit (Vector PK6100) for 30 min at room temperature, washed with 1×TBS twice for 3 min, incubated with DAB solution (Dako K3468) for 1-5 min. Sections were finally washed with distilled water twice for 2 min, counterstained with Hematoxylin (Dako S2020) for 3 min, again washed with running tap water for 5 min, dehydrated and embedded in Pertex. […]

[2] = Quantitative determination of BLZ945 in blood and brain (LC-MS-MS); assay type: in vivo; conditions: mice, p.o., FIG. 11
Description: Sample preparation and analysis was based on a modified protein precipitation procedure followed by liquid chromatographic separation coupled with mass spectrometry for detection. Cerebella were homogenized in a gentleMACS™ Dissociator (Milteniy Biotec, #130-093-235) by adding 20% CH3OH to a final concentration of 0.20 g/mL. Blood-EDTA samples were directly used for further preparation. Calibration, quality control, and recovery control samples were prepared by spiking blank blood and blank brain homogenate with known quantities of BLZ945 (between 0.02 and 62.5 μg/mL). For analyte determination, Labetalol hydrochloride (Sigma-Aldrich, # L1011) was used as generic internal standard (IS). […]
LC-MS-MS analysis: For quantitative analysis, a 1.5 μl aliquot of each sample, including calibration, quality control, and recovery control samples were injected with a cooled Waters™ Acquity Urbinary sample manager and HPLC system. […] Quantification was based on the compound/IS ratio of the extracted ion chromatograms of the selected mass transitions 399 m/z→242 m/z for BLZ945 and 329 m/z→162 m/z for Labetalol (IS). The unknown sample concentration was calculated using external calibration curves. The Lower Limit Of Quantification (LLOQ) of the method was set to 20 ng/mL for blood, and 100 ng/mL for brain samples, and the recovery from the matrix was 95±2%. […]

[3] = compared to control (normal food)

## CNC(=O)c1cc(Oc2ccc3nc(N[C@@H]4CCCC[C@H]4O)sc3c2)ccn1 [BLZ945, 4-(2-((1R,2R)-2-hydroxycyclohexylamino)benzothiazol-6-yloxy)-N-methylpicolinamide]
[1]; [3]
  Iba1+ microglia number compared to control, cortex: lower number of Iba1+ microglia
  Iba1+ microglia number compared to control, striatum: lower number of Iba1+ microglia
[1]; compared to vehicle
  GFAP-positive astrocytes (stained area), all brain areas: enhances astrocytes; also recorded: even further increases astrocyte numbers; also recorded: substantially higher in cortex and striatum than it is in the corpus callosum
[1]; compared to vehicle treated animals
  Iba1-positive microglia numbers, all brain areas analyzed (cortex, striatum, corpus callosum): reduces microglia numbers; also recorded: significantly reducing this increase compared to vehicle treated animals
[1]; immunohistochemistry
  GST-π positive mature oligodendrocytes (number of positive cells), cortex: increases oligodendrocyte numbers; also recorded: did not reach control levels; also recorded: significantly increased after BLZ945 treatment compared to vehicle control
  GST-π positive mature oligodendrocytes (number of positive cells), striatum: increases oligodendrocyte numbers; also recorded: significantly increased after BLZ945 treatment compared to vehicle control; also recorded: did not reach control levels
  Myelin basic protein (MBP) stained area, cortex: enhances remyelination; also recorded: did not reach control levels; also recorded: significantly increased after BLZ945 treatment compared to vehicle control
  Myelin basic protein (MBP) stained area, striatum: enhances remyelination; also recorded: did not reach control levels; also recorded: significantly increased after BLZ945 treatment compared to vehicle control
[1]; vs cuprizone vehicle
  GST-π positive oligodendrocytes, corpus callosum: not corpus callosum; also recorded: no difference
  Luxol fast blue (LFB) optical density, corpus callosum: no difference
  Myelin oligodendrocyte glycoprotein (MOG) optical density, corpus callosum: not corpus callosum; also recorded: no difference
[2]; C57BL/6J, mouse, brain (cerebellum homogenate) / whole blood (EDTA), po, read-out: brain/blood ratio
  Kp at 3 h: 0.3 to 0.6
[2]
  Blood and brain BLZ945 levels: dose-dependent
